Results as given in PubChem BioAssay (NCI).
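48-hour exposure; five concentrations; linearly interpolated endpoints. At the GI50, growth is halved. TGI is the concentration that stops growth completely.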

How the values were obtained:
Assay in all cases: NCI tumour cell line growth inhibition, 48 h
CAKI-1 renal = system: CAKI-1 renal
NCI-H226 lung = system: NCI-H226 lung
SK-MEL-28 melanoma = system: SK-MEL-28 melanoma
HCT-116 colon = system: HCT-116 colon
HOP-92 NSCLC = system: HOP-92 NSCLC
MCF7 breast = system: MCF7 breast
MALME-3M melanoma = system: MALME-3M melanoma
SK-MEL-5 melanoma = system: SK-MEL-5 melanoma

SMILES | TGI (CAKI-1 renal) [µM] | TGI (NCI-H226 lung) [µM] | TGI (SK-MEL-28 melanoma) [µM] | TGI (HCT-116 colon) [µM] | TGI (HOP-92 NSCLC) [µM] | TGI (MCF7 breast) [µM] | TGI (MALME-3M melanoma) [µM] | GI50 (CAKI-1 renal) [µM] | GI50 (NCI-H226 lung) [µM] | GI50 (SK-MEL-28 melanoma) [µM] | GI50 (HCT-116 colon) [µM] | GI50 (HOP-92 NSCLC) [µM] | GI50 (MCF7 breast) [µM] | GI50 (SK-MEL-5 melanoma) [µM] | TGI (SK-MEL-5 melanoma) [µM] | GI50 (MALME-3M melanoma) [µM]
Oc1oc(-c2ccccc2)nc1/C=C1/C=NN=N1 | > 100 | > 100 | > 100 | > 100 | > 100 | > 100 | > 100 | – | – | – | – | – | – | – | – | –
COc1ccc2nc(C3=CN(C4OC(CO)C(O)C(O)C4O)C4C=CC=CC34)sc2c1 (stereo unspecified) | > 100 | 79.3 | > 100 | 81.7 | > 100 | > 100 | – | 40.7 | 21.4 | > 100 | 22.7 | 67.4 | > 100 | 31.5 | 80.7 | –
CCC(C)c1cnc(CC(C)C)c(=O)[nH]1 (stereo unspecified) | > 100 | – | > 100 | > 100 | > 100 | > 100 | – | – | – | – | – | – | – | – | > 100 | –
c1cc(C2N3CCCN2CC3)ccn1 (stereo unspecified) | > 100 | > 100 | > 100 | > 100 | – | > 100 | 80.1 | – | – | – | – | – | – | – | > 100 | –
CN(C)CCC(=O)NCc1c2nc3ccccc3nc2n2ccccc12 | > 100 | – | > 100 | 59.7 | > 100 | > 100 | – | 60.6 | – | 83.9 | 21 | 34.6 | 17.4 | 16.8 | 52.8 | –
Cc1cccc2cc3ccc4ccccc4c3cc12 | > 100 | > 100 | > 100 | > 100 | > 100 | 98 | > 100 | – | – | – | – | – | – | – | 52.6 | –
Cc1sc2c(c1C)C(c1ccc(Cl)cc1)=N[C@@H](CC(=O)Nc1ccc(O)cc1)c1nnc(C)n1-2 | 16.2 | 26 | 26.4 | 17.8 | 13.1 | 18.2 | 33.4 | 0.0946 | 4.48 | 5.31 | 0.499 | 0.0423 | 0.0553 | 0.472 | 14.9 | 12.5
COc1ccc(NCc2c(O)ccc3ccccc23)cc1 | 67.1 | – | 78.3 | > 100 | 29.6 | > 100 | 38.8 | – | – | – | – | – | – | – | 49.1 | –
COC(=O)C1=C2CO[C@@H]3C[C@H]4C(C)(C)CCC[C@]4(C)C(=CC1)[C@]23C | 52.1 | > 100 | > 100 | 51.3 | 44.7 | > 100 | 68.5 | 19.5 | 56.5 | 45.3 | 22.5 | 8.2 | 44 | 20.8 | 43.2 | 12.1
C=C(C)C1CCC2(CO)C(O)CC3(C)C(CCC4C5(C)CCC(O)C(C)(C)C5CCC43C)C12 (stereo unspecified) | > 100 | > 100 | 32.5 | 73.7 | 25.2 | 43.6 | 32 | – | – | – | – | – | – | – | 21.3 | –
CC1CCC(C#N)(NOC2=NCCN2)CC1 (stereo unspecified) | 33.8 | 34.1 | > 100 | > 100 | 91.3 | > 100 | – | 16.2 | 15.2 | > 100 | 63.8 | 35.4 | 55.6 | 38.6 | > 100 | –
NC(N)=N/N=C(/c1ccccc1)c1ccc(O)cc1O | > 100 | > 100 | > 100 | > 100 | > 100 | > 100 | > 100 | – | – | – | – | – | – | – | 65.8 | –
CC(C)(C)n1cc(-c2ccnc(NCCCNS(=O)(=O)c3ccc(Cl)cc3)c2)c(-c2cccc(O)c2)n1 | 5.35 | 5.04 | 3.06 | 3.22 | 3.33 | 3.91 | 3.41 | 2.06 | 2.11 | 1.57 | 1.67 | 1.49 | 1.84 | 1.44 | 2.76 | 1.66
C=CC1=C(C)C(Cc2[nH]c(/C=c3\[nH]/c(=C/C4=NC(=O)C(C)/C4=C\C)c(C)c3CCC(=O)O)c(CCC(=O)OC)c2C)NC1=O (stereo unspecified) | > 100 | – | 31.9 | 36.9 | 51.6 | > 100 | 69.8 | 46.3 | – | 14.8 | 19.8 | 19.6 | 26.7 | 19.9 | 37.4 | 31.8
Cc1ccc2oc(=O)cc(C3c4ccc([nH]4)C(c4cc(=O)oc5ccc(C)cc45)c4ccc([nH]4)C(c4cc(=O)oc5ccc(C)cc45)c4ccc([nH]4)C(c4cc(=O)oc5ccc(C)cc45)c4ccc3[nH]4)c2c1 (stereo unspecified) | 1.79 | 2.78 | 2.98 | 0.28 | 1.07 | 1.95 | 2.85 | 0.0806 | 0.0865 | 0.075 | 0.0295 | 0.106 | 0.0394 | 0.032 | 0.127 | 0.131
Nc1n[n+]([O-])c2cnccc2[n+]1[O-] | > 100 | > 100 | > 100 | > 100 | – | – | – | – | – | – | – | – | – | – | 30 | –
COc1cccc2cc(N(C)c3nc(C)nc4ccsc34)ccc12 | 15.3 | 19.8 | 20 | 10.5 | 2.19 | 16.3 | 18 | < 0.01 | < 0.015 | 1.53 | < 0.01 | < 0.01 | < 0.01 | < 0.01 | < 0.01 | < 0.0116
COc1cc(C(=O)/C=C/c2c(-c3cccs3)nc3ccccn23)cc(OC)c1OC | 8.14 | 4.3 | – | 3.08 | 2.78 | 15.4 | 21.7 | 2.31 | 2.04 | – | 1.63 | 0.289 | 1.12 | 1.33 | 2.72 | 3.65

SMILES | TGI (CAKI-1 renal) [µM] | TGI (NCI-H226 lung) [µM] | TGI (SK-MEL-28 melanoma) [µM] | TGI (HCT-116 colon) [µM] | TGI (HOP-92 NSCLC) [µM] | TGI (MCF7 breast) [µM] | TGI (MALME-3M melanoma) [µM] | GI50 (CAKI-1 renal) [µM] | GI50 (NCI-H226 lung) [µM] | GI50 (SK-MEL-28 melanoma) [µM] | GI50 (HCT-116 colon) [µM] | GI50 (HOP-92 NSCLC) [µM] | GI50 (MCF7 breast) [µM] | GI50 (SK-MEL-5 melanoma) [µM] | TGI (SK-MEL-5 melanoma) [µM] | GI50 (MALME-3M melanoma) [µM]
NCCCn1c2c(c3ccc([N+](=O)[O-])cc3c1=O)C(=O)c1cc(Cl)ccc1-2 | 0.317 | 0.141 | 1.67 | 0.0182 | 0.544 | 0.141 | 0.195 | < 0.01 | < 0.01 | 0.126 | < 0.01 | 0.0542 | < 0.01 | < 0.0151 | 0.25 | < 0.01
Cc1[nH]ccc2cc3nc4ccccc4c3cc12 | 10.8 | 12.6 | 23.9 | 2.38 | 5.64 | 5.63 | 7.94 | 2.38 | 2.94 | 10.7 | 0.667 | 1.3 | 1.34 | 3.28 | 13.6 | 2.27
CSc1ccc(C(=O)/C=C/c2ccc(F)cc2)cc1 | > 100 | > 100 | > 100 | 36.6 | > 100 | 70 | – | > 100 | 57.4 | 69.3 | 20.7 | 75.9 | 28.5 | 75 | > 100 | –
CN(C)CCN1C(=O)c2cccc3c(-c4ccc5ncn(C6CCCCC6)c5c4)ccc(c23)C1=O | 6.67 | 7.78 | 5.66 | 10.9 | 6.45 | 11.1 | 3.93 | 1.27 | 2.32 | 2.18 | 0.422 | 1.79 | 1.56 | 1.44 | 2.85 | 1.9
C[C@@H]1CCC2[C@@H](C)[C@H](OC(=O)CCC(=O)NCCNC(=O)Cc3cc(=O)oc4cc(N(C)C)ccc34)O[C@@H]3O[C@]4(C)CC[C@@H]1C23OO4 (stereo partly specified) | > 25.6 | 35.2 | > 100 | 12.8 | 16.9 | 28.2 | > 100 | 2.64 | 7.81 | 17.4 | 0.323 | 2.6 | 2.92 | 1.48 | > 39.3 | 2.02
COC(=O)c1cccc2c1Oc1ccccc1S2 | 65.1 | > 100 | > 100 | > 100 | > 100 | > 100 | – | – | – | – | – | – | – | – | 54.9 | –
C=C1C(=O)O[C@H]2[C@H]1CC/C(COC(=O)NCc1cccc(OC)c1)=C\CC[C@@]1(C)O[C@@H]21 | 3.62 | 27.8 | 3.82 | 2.76 | 2.96 | 8.97 | 3.53 | 1.62 | 12.1 | 1.84 | 1.27 | 1.32 | 2.36 | 1.64 | 3.2 | 1.74
Clc1ccc2c(NCCN3CCN(c4ccnc(N5CCCC5)n4)CC3)ccnc2c1 | 10.3 | 41 | 3.66 | 10.4 | – | 8.04 | 3.74 | 2.69 | 21.8 | 1.77 | 2.51 | – | 1.96 | 1.79 | 3.19 | 1.91
ClC1=C(Cl)C(Cl)=C(Cl)C1=Cc1ccc(Cl)cc1Cl | – | – | 2.8 | 0.494 | 2.56 | > 100 | – | – | – | 0.567 | 0.206 | 0.633 | 0.319 | 1.04 | 2.26 | –
COc1ccc(-c2cc3nccn3c(Nc3ncccc3C(N)=O)n2)cc1OC | > 100 | > 100 | > 100 | > 47.4 | – | > 100 | > 100 | 0.274 | > 100 | > 100 | 0.516 | – | 1.87 | 4.87 | > 100 | > 100
CCOC(CN(C)C(=O)OCC(Cl)(Cl)Cl)OCC | > 100 | > 100 | > 100 | > 100 | > 100 | > 100 | – | – | – | – | – | – | – | – | > 100 | –
Cc1cc(Cl)ccc1Nc1nc(C(F)(F)F)ccc1C(=O)N/N=C/c1ccc(N(C)C)cc1 | 8.52 | > 100 | > 100 | > 100 | – | > 100 | – | 0.404 | 2.29 | 3.81 | 0.743 | – | 1.9 | 2.56 | > 100 | –
O=C1/C(=C/c2ccc(C(F)(F)F)cc2)COc2ccc(O)cc21 | 3.85 | 8.21 | 3.8 | 3.42 | 24.7 | – | 5.1 | 1.74 | 2.53 | 1.79 | 1.77 | 11.8 | – | 1.97 | 4.38 | 2.05
C=C(C)C(=O)N1c2ccc(OC)cc2CC1C(=O)OCC (stereo unspecified) | > 100 | > 100 | > 100 | > 100 | – | > 100 | – | – | – | – | – | – | – | – | > 100 | –
O=C1C(Cl)=C(Nc2ccc3c(c2NC2=C(Cl)C(=O)c4ccccc4C2=O)C(=O)c2ccccc2C3=O)C(=O)c2ccccc21 | – | 8.9 | 8.61 | – | 4.95 | – | 1.72 | – | 2.7 | 2.87 | – | 2.03 | – | 0.386 | 1.47 | 0.505
CC(C)[C@H](O)C(=O)N[C@H]1Cc2ccc3c(c2)[C@]24C5=C(N=C(O5)[C@H](C(C)C)NC1=O)c1nc(Cl)c(o1)-c1c(Cl)[nH]c5cccc(c15)-c1cccc2c1N[C@H]4O3 | 3.29 | 0.0273 | – | – | – | > 10 | 0.0526 | 0.00468 | – | – | < 0.001 | – | < 0.001 | < 0.001 | – | –
C=C(CN(CCN1CCOCC1)CC(=C)c1ccc(C(=O)Nc2ccccc2N)cc1)c1ccc(C(=O)Nc2ccccc2N)cc1 | 34.6 | – | 16.2 | 15.3 | 33.8 | > 50 | – | 9.45 | – | 6.86 | 7.68 | 8.35 | 11 | 8.38 | 16.7 | –
CCN1CCN(c2nc(C)cc(N(CCCNc3ccnc4cc(Cl)ccc34)Cc3ccco3)n2)CC1 | – | 29.2 | 3.6 | 10.9 | 6.72 | 14.8 | 3.67 | – | 15.3 | 1.82 | 2.05 | 2.26 | 2.98 | 1.81 | 3.3 | 1.89
